The test system of data set [1] is Human immunodeficiency virus 1. The experiment in a line: microbe, parasite or virus in culture. The settings on record: Human immunodeficiency virus 1, LAV.
The next data set concerns PC-6. The data set can be described thus: Growth inhibition of human PC-6 cells. The class given is functional.
The nature of data set [2]: Growth inhibition of human PC-12 cells. The class given is functional, PC12.
Data set [3] is described as follows: Stability of the compound in 20% aqueous dioxane solution at 30 degreeC assessed as compound hydrolysis by measuring rate constant. It is filed as physicochemical. The settings on record: buffer.
Data set [4] concerns Escherichia coli. The data set can be described thus: Inhibition of Escherichia coli beta-lactamase at 1 uM relative to control.
The test system of a further data set is Pasteurella multocida. The experiment in a line: Antibacterial activity against Pasteurella multocida 59A0067 assessed as inhibition of bacterial growth by microdilution method. It is filed as functional. (In general: Dilution methods test growth across graded concentrations, often in twofold steps.)
For data set [5], the system named is Escherichia coli. The experiment in a line: Antibacterial activity against Escherichia coli 51A0150 assessed as inhibition of bacterial growth by microdilution method. It is filed as functional.
Another data set deals with Staphylococcus aureus. The data set can be described thus: Antibacterial activity against Staphylococcus aureus 01A0785 assessed as inhibition of bacterial growth by microdilution method. It is filed as functional.
Data set [6] has as its target Human immunodeficiency virus type 1 protease (Human immunodeficiency virus 1, UniProt Q72874). The experiment in a line: Inhibition of HIV-1 protease.
A short description of data set [7]: Inhibition of Leukotriene B4 production in human blood Polymorphonuclear neutrophil cells. It is filed as functional, tissue-based.
A short description of data set [8]: Oral bioavailability in human. The class given is ADME, organism-based. As to conditions: in vivo.
The nature of data set [9]: Aqueous solubility of compound. It is filed as physicochemical. As to conditions: aqueous (not further specified).
Another data set has as its system Hepatitis C virus. The experiment in a line: Antiviral activity against Hepatitis C virus genotype 1a harboring NS5A Y93H mutant. It is filed as functional, organism-based, Hepacivirus hominis.
Data set [10] in a line: Aqueous stability of the compound assessed as acid-catalyzed decomposition by measuring rate constant. The class given is physicochemical. The settings on record: buffer.
A short description of data set [11]: Stability of the compound in 1M HCL buffer assessed as drug degradation by measuring rate constant by FRET-based assay. The class given is physicochemical.
Data set [12] has as its system Candida albicans. The experiment in a line: Antifungal activity against Candida albicans GS. The class given is functional, organism-based.
Data set [13] deals with Candida albicans. The experiment in a line: Fungicidal activity against Candida albicans. The class given is functional.

The values that follow come from ChEMBL document CHEMBL5244275, “Geminal Diheteroatomic Motifs: Some Applications of Acetals, Ketals, and Their Sulfur and Nitrogen Homologues in Medicinal Chemistry and Drug Design” (J Med Chem, 2021).

As usually defined, the EC50 is the midpoint of the concentration-response curve. Usually GI50 stands for the concentration giving 50% growth inhibition. A low value points to more potent growth inhibition. One may read the inhibition as the relative decrease from the control value, in per cent. The low end stands for a weak effect, the high end for a strong effect. For orientation: MIC means the smallest concentration in the dilution series that meets the test's criterion for growth inhibition. As a reminder, the IC50 is the point on the concentration scale where inhibition reaches its midpoint. Higher therefore signals a need for much substance. The bioavailability is the share of a dose that reaches the circulation, judged against a reference dose that is usually intravenous. Usually solubility stands for the concentration that dissolves in the medium under given conditions. Read a high solubility as a readily soluble substance. Broadly, the MFC is the lowest tested concentration that kills the fungus rather than only halting it.

The structures appear in SMILES notation. Converted amounts (≈) assume the structure as drawn.

As to `Nc1nc(=O)n([C@H]2CS[C@@H](CO)O2)cc1F`, in data set [1], the EC50 came to 840 nM. On to `CC(=O)O[C@@]12CO[C@@H]1C[C@H](O)[C@@]1(C)C(=O)[C@H](O)C3=C(C)[C@@H](OC(=O)[C@H](O)[C@@H](NC(=O)OC(C)(C)C)c4ccccc4)C[C@@](O)([C@@H](OC(=O)c4ccccc4)[C@H]21)C3(C)C` [DOCETAXEL ANHYDROUS], for which the GI50 in the data set on PC-6 came out at 1.48 ng/mL (≈ 0.00183 µM); in data set [2] it was 42.2 ng/mL (≈ 0.0522 µM).

As for `CCOC(OCC)(c1ccccc1)c1ccccc1`, in data set [3], the K was 4.3 10^-1/M/s.

`O=C(O)[C@H]1/C(=C/CO)O[C@@H]2CC(=O)N21` yielded an inhibition in the data set with Escherichia coli [4] of 81%. As for `CC[C@H]1OC(=O)[C@H](C)[C@@H](O[C@H]2C[C@@](C)(OC)[C@@H](O)[C@H](C)O2)[C@H](C)[C@@H](O[C@@H]2O[C@H](C)C[C@H](N(C)C)[C@H]2O)[C@](C)(O)C[C@@H](C)CN(C)[C@H](C)[C@@H](O)[C@]1(C)O` [AZITHROMYCIN], the MIC in the data set with Pasteurella multocida came out at 100 ng/mL (≈ 0.134 µM); in the data set with Escherichia coli [5], 1560 ng/mL (≈ 2.08 µM); with Staphylococcus aureus it was 200 ng/mL (≈ 0.267 µM). Take `COc1ccc(S(=O)(=O)N(CC(C)C)C[C@@H](O)[C@H](Cc2ccccc2)NC(=O)O[C@H]2CO[C@H]3O[C@@H]4OCC[C@@H]4[C@H]32)cc1`: it took 1.8 nM to reach half-maximal inhibition in data set [6] (IC50). Regarding `CC(=O)O[C@H]1C(=O)[C@@]2(C)[C@H]([C@H](OC(=O)c3ccccc3)[C@]3(O)C[C@H](OC(=O)[C@H](O)[C@@H](NC(=O)c4ccccc4)c4ccccc4)C(C)=C1C3(C)C)[C@]1(OC(C)=O)CO[C@@H]1C[C@@H]2O` [PACLITAXEL], the figures for the GI50 (with PC-6; in [2]) were 1.27 ng/mL (≈ 0.00149 µM) and 539 ng/mL (≈ 0.631 µM), respectively. In data set [7], `O=C1OCc2c1cc1cc(OCc3cccc(C4(O)CC5COC(C4)O5)c3)ccc1c2-c1ccccc1` (stereo unspecified) gave an IC50 of 6 nM. In data set [8], `CC(C)[C@H](N)C(=O)OCCOCn1cnc2c(=O)[nH]c(N)nc21` [VALACYCLOVIR] showed a bioavailability of 54%. This compound also returned a solubility in data set [9] of 174 mg/mL (≈ 536000 µM). Take `Clc1ccc(C2(c3ccc(Cl)cc3)OCCO2)cc1`: the K in [3] was 3.3 10^-3/M/s.

`COC(=O)N[C@H](C(=O)N1CCC[C@H]1c1ncc(-c2ccc(-c3cc4cc(-c5cnc([C@@H]6CCCN6C(=O)[C@@H](NC(=O)OC)C(C)C)[nH]5)ccc4o3)cc2)[nH]1)C(C)C` yielded an EC50 in the data set on Hepatitis C virus of 27 nM.

For `COc1ccc(C2OCCS2)cc1` (stereo unspecified), the K in data set [10] worked out at 0.778 min⁻¹. Consider `CC(=O)O[C@@]12CO[C@@H]1CC[C@@]1(C)[C@@H]3O[C@H](CN4CCOCC4)O[C@@H]3C3=C(C)[C@@H](OC(=O)[C@H](O)[C@@H](NC(=O)OC(C)(C)C)c4ncccc4F)C[C@@](O)([C@@H](OC(=O)c4ccccc4)[C@@H]12)C3(C)C`, for which the figures for the GI50 (in the data set with PC-6; in [2]) were 0.29 ng/mL (≈ 0.000314 µM) and 0.14 ng/mL (≈ 0.000152 µM), respectively.

`COC(=O)N[C@H](C(=O)N1CCC[C@H]1c1ncc(-c2ccc3c(c2)OCn2c-3cc3cc(-c4cnc([C@@H]5CCCN5C(=O)[C@@H](NC(=O)OC)C(C)C)[nH]4)ccc32)[nH]1)C(C)C` displayed an EC50 in the data set with Hepatitis C virus of 5 nM. For `COc1cc(/N=N/c2ccc([N+](=O)[O-])cc2)c(OC)cc1/N=N/c1ccc(N(C)CCCC(=O)NCCSC2CC(=O)N(CCC3OCC(C(=O)NCCCNC(=O)c4ccc(-c5c6ccc(=[N+](C)C)cc-6oc6cc(N(C)C)ccc56)c(C(=O)[O-])c4)O3)C2=O)cc1` (stereo unspecified), the K in [11] is 4.61 10^-6/s. `Nc1nc(=O)n([C@@H]2CS[C@H](CO)O2)cc1F` [EMTRICITABINE] returned a bioavailability in data set [8] of 60%. Moreover, the EC50 in data set [1] was found to be 8 nM.

With `Cc1ccc(C2(c3ccc(C)cc3)OCCO2)cc1`, in data set [3], the K is on record as 1.7 10^-1/M/s. As to `CC(=O)O[C@@]12CO[C@@H]1CC[C@@]1(C)[C@H]3OC(C)(C)O[C@@H]3C3=C(C)[C@@H](OC(=O)[C@H](O)[C@@H](NC(=O)OC(C)(C)C)c4ccccn4)C[C@@](O)([C@@H](OC(=O)c4ccccc4)[C@@H]12)C3(C)C`, the GI50 was 0.33 ng/mL (≈ 0.000395 µM) in the data set with PC-6 and 0.15 ng/mL (≈ 0.00018 µM) in data set [2]. As for `CC[C@H](C)C[C@H](C)CCCCCCCCC(=O)N[C@H]1C[C@@H](O)[C@@H](OCCN)NC(=O)[C@@H]2[C@@H](O)CCN2C(=O)[C@H]([C@H](O)CC(N)=O)NC(=O)[C@H]([C@H](O)[C@@H](O)c2ccc(O)cc2)NC(=O)[C@@H]2C[C@@H](O)CN2C(=O)[C@H]([C@@H](C)O)NC1=O`, the IC50 with Candida albicans [12] amounted to 10 nM. Moreover, the MFC with Candida albicans [13] stood at 250 ng/mL (≈ 0.226 µM). As for `CC(=O)O[C@@]12CO[C@@H]1CC[C@@]1(C)[C@@H]3O[C@H](CN(C)C)O[C@@H]3C3=C(C)[C@@H](OC(=O)[C@H](O)[C@@H](NC(=O)OC(C)(C)C)c4ncccc4F)C[C@@](O)([C@@H](OC(=O)c4ccccc4)[C@@H]12)C3(C)C` [TESETAXEL], the GI50 amounted to 0.38 ng/mL (≈ 0.000431 µM) in the data set with PC-6 and 0.62 ng/mL (≈ 0.000703 µM) in [2]. Take `CC1(C)[C@H](C(=O)O)N2C(=O)/C(=C/c3ccccn3)[C@H]2S1(=O)=O`: the inhibition with Escherichia coli [4] is 100%.
